Test results reported in patent US20210228562A1, “IRAK DEGRADERS AND USES THEREOF” (Kymera Therapeutics, Inc., priority 2019, published 2021).

What was measured:
Format in all cases: cell-based
IRAK4 = target: T1, IRAK4 (Homo sapiens, UniProt Q9NWZ3); experiment: IRAK4 MSD Degradation in OCI-LY10; details: OCI-LY10 cells, 24 hrs incubation; read-out: IRAK4 degradation in OCI-LY10 at 24 hrs: DC50
T1 construct: endogenous in cells; host or cells: OCI-LY10
T1 sequence (Q9NWZ3 1-460): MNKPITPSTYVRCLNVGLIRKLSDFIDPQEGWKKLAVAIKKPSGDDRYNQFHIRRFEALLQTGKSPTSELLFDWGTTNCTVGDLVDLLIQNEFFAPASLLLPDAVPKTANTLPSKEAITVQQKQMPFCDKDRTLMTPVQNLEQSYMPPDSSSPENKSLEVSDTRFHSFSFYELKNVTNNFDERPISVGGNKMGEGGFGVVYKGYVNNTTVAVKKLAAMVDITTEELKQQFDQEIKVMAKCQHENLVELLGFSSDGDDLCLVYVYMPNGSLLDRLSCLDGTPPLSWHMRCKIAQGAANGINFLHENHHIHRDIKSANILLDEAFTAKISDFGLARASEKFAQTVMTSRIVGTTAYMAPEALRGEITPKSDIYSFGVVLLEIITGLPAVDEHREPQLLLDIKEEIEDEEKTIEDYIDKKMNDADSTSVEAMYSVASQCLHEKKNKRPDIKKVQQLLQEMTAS
Description: Degradation of IRAK4 in OCI-LY10 was quantitatively measured using Meso Scale Discovery technology. OCI-LY10 cells were seeded in 96-well plates (Corning 3799) with a density of 300,000 cells per well in 100 μL fresh media. Compounds were then added to the assay plates with a final top concentration of 1 to 10 μM in a 1:3 dilution series with total of 8 doses. The assay plates were then incubated for 4 to 24 hours at 37° C. under 5% CO2. The assay plates were then centrifuged for 5 minutes and the cell pellets were treated with 100 μL/well RIPA lysis buffer (Boston BioProducts BP-115D) with proteinase inhibitors. To prepare MSD assay plates (Meso Scale Discovery Catalog number L15XA-3), the plates were coated with 2 μg/mL capture antibody (mouse Anti-IRAK4 antibody [2H9], ab119942) in PBS, at 40 μL/well. The plates were then incubated overnight at 4° C., washed 3 times with 150 μL/well TBST buffer (Cell Signaling Technology, Catalog number 9997S) and blocked with 150 μL/well blocking buffer (Meso Scale Discovery Catalog number R93BA-4). Cell lysates were then added to MSD assay plates and the plates were incubated at room temperature for 1 hour. The plates were then washed 3 times with 150 μL/well TBST buffer and 25 μL/well primary detection antibody (rabbit Anti-IRAK4 antibody [Y279], from Abcam. Catalog number ab32511, 1 μg/mL). The assay plates were then incubated at room temperature for 1 hour, washed 3 times with 150 μL/well TBST buffer and 25 μL/well secondary detection antibody, SULFO-TAG anti-rabbit antibody were added (anti rabbit antibody from Meso Scale Discovery, Catalog number R32AB-1, 1 μg/mL). The assay plates were then incubated at room temperature for 1 hour, washed 3 times with 150 μL/well TBST buffer, and 150 μL/well MSD reading buffer (Meso Scale Discovery catalog number R92TC-2) was added. The plates were then analyzed by a MSD reader (Meso Scale Discovery, Model Quick Plex SQ 120). The data was then analyzed by software Prism 7.0 from GraphPad and the dose-depended IRAK4 degradation were fit using a three-parameter logistic equation to calculate DC50.

OCI-LY10 cells = experiment: CTG Cell Viability Assay - OCI-LY10; details: Homo sapiens, 96 h, CellTiter-Glo, 4 days incubation
Description: Compound-mediated viability effect on OCI-LY10 or SUDHL-2 was quantitatively determined using the CellTiter-Glo® Luminescent Cell Viability Assay kit from Promega (Catalog number G7570) following manufacturer's recommended procedures. Briefly, OCI-LY10 or SUDHL-2 cells were seeded into 384 well plates (Grenier Bio-One, Catalog number 781080) with a density of 10,000 cells per well. Compounds were then added to the assay plate with final top concentration of 10 μM and 1:3 dilution series with total of 9 doses. The final DMSO concentration was normalized to 0.2%. The assay plates were incubated at 37° C. for 4 days under 5% CO2. Then the assay plate was equilibrated at room temperature for 10 minutes. To determine cell viability, 30 μL CellTiter Glo reagent was added to each well and the assay plate was centrifuged at 1000 rpm for 30 second, incubated at room temperature for 10 min, and analyzed by detecting the luminescence using a multimode plate reader (EnVision 2105, PerkinElmer). The data was then analyzed by software Prism 7.0 from GraphPad and the dose response curves were fit using a three-parameter logistic equation to calculate IC50.

[1] = target: T2, Aiolos (protein product of gene IKZF3) (Homo sapiens, UniProt Q96SW2+Q9UKT9); experiment: Quantification of Aiolos degradation in OCI-LY10 cells (quantitative immunoblotting); details: 6 h treatment
T2 construct: endogenous in cells; host or cells: OCI-LY10
Description: (§1) Degradation of Ikaros (protein product of gene IKZF1) and Aiolos (protein product of gene IKZF3) were determined by quantitative immunoblotting as follows. OCI-LY10 cells, 2×10^6 cells/well, were treated with listed concentrations of IRAK4 degraders or control compounds in 6 well plates for 6 h. Cells were collected, washed with cold PBS, lysed in RIPA buffer (Boston BioProducts BP-115D) with protease/phosphatase inhibitor cocktail (Roche 05892791001/Roche 04906837001) and centrifuged at 13000 RPM for 20 min to precipitate insoluble material. The supernatant fraction was diluted in SDS-PAGE loading buffer (Beyotime Bio P0015) and 20 μL of each sample was resolved on 4-12% Bis-Tris SDS-PAGE gels (Novex, WG1402BOX). Resolved samples were transferred to nitrocellulose membranes by wet electro-transfer method at 250 mV for 1.5 h. The membrane was blocked with LICOR blocking buffer (LI-COR, 927-50000) for 1 hour, washed three times with TBST (CST #99975) for 5 minutes each and incubated with primary antibody prepared in block buffer with 0.1% Tween-20 (Solarbio, P8220) at 4° C. overnight. Ikaros antibody was rabbit monoclonal D6N9Y (CST #14859), at 1:1000 dilution. Aiolos antibody was rabbit monoclonal D1C1E (CST #15103), at 1:1000 dilution. Signal was normalized to mouse anti-beta-Actin monoclonal 8H10D10 (CST #3700) used at 1:10,000 dilution. After incubation in primary antibodies, membranes were washed three times with TBST, 5 minutes each, incubated with fluorescently labeled secondary antibodies anti-rabbit IgG (Licor, 926-32211) at 1:5000 dilution; anti-mouse IgG (LI-COR, 926-68070) at 1:5000 dilution, for 1 hour at RT. After incubation in secondary, membranes were washed three times with TBST, 5 minutes each and read on LICOR Odyssey imager. Data was reported as signal for Ikaros or Aiolos relative to signal for actin, and normalized to DMSO-treated control.

[2] = target: T3, Ikaros (protein product of gene IKZF1) (Homo sapiens, UniProt Q13422+Q96SW2); experiment: Quantification of Ikaros degradation in OCI-LY10 cells (quantitative immunoblotting); details: 6 h treatment
T3 construct: endogenous in cells; host or cells: OCI-LY10
Description: as §1

T2 sequence (Q9UKT9 whole entry): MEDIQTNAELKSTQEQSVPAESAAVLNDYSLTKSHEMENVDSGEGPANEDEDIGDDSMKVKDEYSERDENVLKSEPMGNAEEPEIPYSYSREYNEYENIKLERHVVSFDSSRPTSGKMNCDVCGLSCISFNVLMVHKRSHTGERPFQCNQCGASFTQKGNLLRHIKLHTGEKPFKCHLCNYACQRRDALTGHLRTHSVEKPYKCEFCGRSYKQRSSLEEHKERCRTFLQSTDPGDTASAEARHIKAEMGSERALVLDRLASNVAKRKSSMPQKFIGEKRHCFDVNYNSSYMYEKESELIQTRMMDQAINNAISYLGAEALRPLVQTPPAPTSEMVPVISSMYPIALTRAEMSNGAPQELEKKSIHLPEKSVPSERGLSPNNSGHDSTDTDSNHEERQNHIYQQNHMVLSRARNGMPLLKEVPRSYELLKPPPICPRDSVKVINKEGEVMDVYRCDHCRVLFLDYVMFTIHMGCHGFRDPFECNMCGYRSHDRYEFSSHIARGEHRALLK
T2 sequence (Q96SW2 whole entry): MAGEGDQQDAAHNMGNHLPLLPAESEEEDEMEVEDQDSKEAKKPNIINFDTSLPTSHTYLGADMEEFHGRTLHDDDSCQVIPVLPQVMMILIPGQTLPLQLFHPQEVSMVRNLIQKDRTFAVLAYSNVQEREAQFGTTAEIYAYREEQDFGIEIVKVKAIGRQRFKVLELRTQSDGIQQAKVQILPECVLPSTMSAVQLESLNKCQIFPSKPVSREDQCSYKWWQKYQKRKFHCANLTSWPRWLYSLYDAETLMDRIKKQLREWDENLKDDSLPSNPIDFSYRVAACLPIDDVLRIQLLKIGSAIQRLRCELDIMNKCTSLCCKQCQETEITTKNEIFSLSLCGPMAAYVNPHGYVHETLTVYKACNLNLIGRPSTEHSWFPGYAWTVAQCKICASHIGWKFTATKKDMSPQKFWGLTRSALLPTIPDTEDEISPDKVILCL
T2 sequence (Q16531 whole entry partner): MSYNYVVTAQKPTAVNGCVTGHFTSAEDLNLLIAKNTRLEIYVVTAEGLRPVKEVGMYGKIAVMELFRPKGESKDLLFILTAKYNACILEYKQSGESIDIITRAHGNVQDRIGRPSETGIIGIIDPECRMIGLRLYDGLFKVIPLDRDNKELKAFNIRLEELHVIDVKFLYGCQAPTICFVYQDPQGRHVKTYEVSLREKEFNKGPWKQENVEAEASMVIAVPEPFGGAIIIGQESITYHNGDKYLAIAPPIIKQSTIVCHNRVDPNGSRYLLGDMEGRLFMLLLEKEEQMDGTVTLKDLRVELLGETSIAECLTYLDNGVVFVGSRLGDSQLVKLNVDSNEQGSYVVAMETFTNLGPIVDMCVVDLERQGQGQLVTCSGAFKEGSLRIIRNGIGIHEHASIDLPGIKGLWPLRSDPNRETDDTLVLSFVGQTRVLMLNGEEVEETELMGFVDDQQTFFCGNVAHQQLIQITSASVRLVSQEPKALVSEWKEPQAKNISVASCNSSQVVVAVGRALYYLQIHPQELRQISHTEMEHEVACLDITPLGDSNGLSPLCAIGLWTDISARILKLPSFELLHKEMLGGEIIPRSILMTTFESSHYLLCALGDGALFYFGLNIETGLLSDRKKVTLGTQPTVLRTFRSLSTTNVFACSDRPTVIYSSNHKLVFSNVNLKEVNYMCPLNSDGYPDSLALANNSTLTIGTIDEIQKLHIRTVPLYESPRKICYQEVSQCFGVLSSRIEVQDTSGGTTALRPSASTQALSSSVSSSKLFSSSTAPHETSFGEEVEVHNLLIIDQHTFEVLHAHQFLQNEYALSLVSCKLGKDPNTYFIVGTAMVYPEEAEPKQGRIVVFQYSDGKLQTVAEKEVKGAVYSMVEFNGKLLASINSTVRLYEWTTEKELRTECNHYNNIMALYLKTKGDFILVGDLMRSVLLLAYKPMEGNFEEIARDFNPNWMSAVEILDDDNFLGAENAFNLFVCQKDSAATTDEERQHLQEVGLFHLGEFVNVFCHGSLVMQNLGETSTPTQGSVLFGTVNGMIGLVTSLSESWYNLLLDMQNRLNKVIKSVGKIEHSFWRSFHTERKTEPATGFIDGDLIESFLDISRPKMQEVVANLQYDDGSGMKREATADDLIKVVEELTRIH
T3 sequence (Q13422 whole entry): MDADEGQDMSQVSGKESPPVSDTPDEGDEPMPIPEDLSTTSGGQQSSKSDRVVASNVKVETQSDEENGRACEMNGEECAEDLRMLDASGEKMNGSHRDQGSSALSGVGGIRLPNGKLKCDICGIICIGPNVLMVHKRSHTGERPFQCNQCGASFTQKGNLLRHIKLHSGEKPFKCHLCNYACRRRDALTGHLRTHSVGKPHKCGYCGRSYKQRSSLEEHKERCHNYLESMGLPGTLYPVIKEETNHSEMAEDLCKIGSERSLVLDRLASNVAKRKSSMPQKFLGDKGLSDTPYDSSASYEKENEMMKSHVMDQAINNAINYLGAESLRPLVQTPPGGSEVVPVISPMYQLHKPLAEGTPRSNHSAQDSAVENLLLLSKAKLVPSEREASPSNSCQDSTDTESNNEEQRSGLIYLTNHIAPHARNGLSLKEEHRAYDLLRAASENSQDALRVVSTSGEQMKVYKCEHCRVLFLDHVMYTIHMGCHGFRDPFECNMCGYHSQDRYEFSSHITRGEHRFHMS
T3 sequence (Q96SW2 whole entry): as the sequence (Q96SW2 whole entry) above
T3 sequence (Q16531 whole entry partner): as the sequence (Q16531 whole entry partner) above

SMILES	DC50 (IRAK4)	IC50 (OCI-LY10 cells)	DC50 [1]	DC50 [2]
COc1cc2nc([C@H]3CC[C@H](CN4CC5(CCC(CNc6cccc7c6C(=O)N(C6CCC(=O)NC6=O)C7=O)CC5)C4)CC3)sc2cc1NC(=O)c1cccc(C(F)(F)F)n1 (stereo partly shown) [I-20]	50 to 100 nM	< 50 nM	100 to 500 nM	100 to 500 nM
Cc1cccc(C(=O)Nc2cc3sc([C@H]4CC[C@H](CN(C)[C@H]5CC[C@H](Nc6cccc7c6C(=O)N(C6CCC(=O)NC6=O)C7=O)CC5)CC4)nc3cc2C(C)(C)O)n1 (stereo partly shown) [I-23]	< 50 nM	100 to 500 nM	< 50 nM	100 to 500 nM
CN(C[C@H]1CC[C@H](c2nc3cc(C(C)(C)O)c(NC(=O)c4cccc(C(F)(F)F)n4)cc3s2)CC1)[C@H]1CC[C@H](Nc2cccc3c2C(=O)N(C2CCC(=O)NC2=O)C3=O)CC1 (stereo partly shown) [I-28]	< 50 nM	100 to 500 nM	< 50 nM	50 to 100 nM
CN(C[C@H]1CC[C@H](c2nc3cc(C(C)(C)O)c(NC(=O)c4cccc(C(F)(F)F)n4)cc3s2)CC1)[C@H]1CC[C@@H](CCNc2cccc3c2C(=O)N(C2CCC(=O)NC2=O)C3=O)CC1 (stereo partly shown) [I-46]	50 to 100 nM	< 50 nM	< 50 nM	< 50 nM
CC(C)(O)c1cc2nc([C@H]3CC[C@H](CN4CC5(CC(CCNc6cccc7c6C(=O)N(C6CCC(=O)NC6=O)C7=O)C5)C4)CC3)sc2cc1NC(=O)c1cccc(C(C)(F)F)c1 (stereo partly shown) [I-50]	500 to 1000 nM	< 50 nM	< 50 nM	< 50 nM
CN(C[C@H]1CC[C@H](c2nc3cc(C(C)(C)O)c(NC(=O)c4cccc(C(F)(F)F)n4)cc3s2)CC1)[C@H]1CC[C@H](CCNc2cccc3c2C(=O)N(C2CCC(=O)NC2=O)C3=O)CC1 (stereo partly shown) [I-27]	< 50 nM	< 50 nM	< 50 nM	< 50 nM
COc1cc2nc([C@H]3CC[C@H](CN(C)[C@H]4CC[C@]5(CC4)C[C@@H](CNc4cccc6c4C(=O)N(C4CCC(=O)NC4=O)C6=O)C5)CC3)sc2cc1NC(=O)c1cccc(C(F)(F)F)n1 (stereo partly shown) [I-21]	100 to 500 nM	100 to 500 nM	< 50 nM	50 to 100 nM
COc1cc2nc([C@H]3CC[C@H](CN4CC5(CC(CCNc6cccc7c6C(=O)N(C6CCC(=O)NC6=O)C7=O)C5)C4)CC3)sc2cc1-n1ccc2ccccc2c1=O (stereo partly shown) [I-42]	50 to 100 nM	< 50 nM	< 50 nM	< 50 nM
Cc1cc(F)cc(C(=O)Nc2cc3sc([C@H]4CC[C@H](CN5CC6(CC(CCNc7cccc8c7C(=O)N(C7CCC(=O)NC7=O)C8=O)C6)C5)CC4)nc3cc2C(C)(C)O)n1 (stereo partly shown) [I-33]	< 50 nM	< 50 nM	< 50 nM	< 50 nM

The remaining lines, values ahead:

DC50 (IRAK4)	IC50 (OCI-LY10 cells)	DC50 [1]	DC50 [2]	SMILES
< 50 nM	< 50 nM	< 50 nM	< 50 nM	C[C@H](CNc1cccc2c1C(=O)N(C1CCC(=O)NC1=O)C2=O)C1CC2(C1)CN(C[C@H]1CC[C@H](c3nc4cc(C(C)(C)O)c(NC(=O)c5cccc(C(F)(F)F)n5)cc4s3)CC1)C2 (stereo partly shown) [I-31]
100 to 500 nM	< 50 nM	< 50 nM	< 50 nM	CC(C)(O)c1cc2nc([C@H]3CC[C@H](CN4CC5(CC(CCNc6cccc7c6C(=O)N(C6CCC(=O)NC6=O)C7=O)C5)C4)CC3)sc2cc1NC(=O)c1ccnc(C(F)(F)F)n1 (stereo partly shown) [I-54]
100 to 500 nM	100 to 500 nM	100 to 500 nM	100 to 500 nM	CC(C)(O)c1cc2nc([C@H]3CC[C@H](CN4CCC5(CC4)CC4(CC(CCNc6cccc7c6C(=O)N(C6CCC(=O)NC6=O)C7=O)C4)C5)CC3)sc2cc1NC(=O)c1cccc(C(F)(F)F)n1 (stereo partly shown) [I-59]
< 50 nM	50 to 100 nM	< 50 nM	< 50 nM	CC(C)(O)c1cc2nc([C@H]3CC[C@H](CN4CC5(CC(CNc6cccc7c6C(=O)N(C6CCC(=O)NC6=O)C7=O)C5)C4)CC3)sc2cc1NC(=O)c1cccc(C(F)(F)F)n1 (stereo partly shown) [I-26]
> 1000 nM	< 50 nM	< 50 nM	< 50 nM	CC(C)(O)c1cc2nc([C@H]3CC[C@H](CN4CC5(CC(CCNc6cccc7c6C(=O)N(C6CCC(=O)NC6=O)C7=O)C5)C4)CC3)sc2cc1NC(=O)c1ccc(C(F)(F)F)nn1 (stereo partly shown) [I-55]
< 50 nM	< 50 nM	< 50 nM	< 50 nM	CC(C)(O)c1cc2nc([C@H]3CC[C@H](CN4CC5(CC(CCNc6cccc7c6C(=O)N(C6CCC(=O)NC6=O)C7=O)C5)C4)CC3)sc2cc1NC(=O)c1cccc(C(F)F)n1 (stereo partly shown) [I-47]
100 to 500 nM	< 50 nM	< 50 nM	< 50 nM	CC(C)(O)c1cc2nc([C@H]3CC[C@H](CN4CC5(CC(CCNc6cccc7c6C(=O)N(C6CCC(=O)NC6=O)C7=O)C5)C4)CC3)sc2cc1NC(=O)c1cccc(C(F)(F)F)c1 (stereo partly shown) [I-53]
< 50 nM	100 to 500 nM	100 to 500 nM	100 to 500 nM	CC(C)(O)c1cc2nc([C@H]3CC[C@H](CN4CC(CCNc5cccc6c5C(=O)N(C5CCC(=O)NC5=O)C6=O)C4)CC3)sc2cc1NC(=O)c1cccc(C(F)(F)F)n1 (stereo partly shown) [I-45]
< 50 nM	< 50 nM	< 50 nM	< 50 nM	CC(C)(O)c1cc2nc([C@H]3CC[C@H](CN4CCC5(CC4)CC(CNc4cccc6c4C(=O)N(C4CCC(=O)NC4=O)C6=O)C5)CC3)sc2cc1NC(=O)c1cccc(C(F)(F)F)n1 (stereo partly shown) [I-29]
50 to 100 nM	500 to 1000 nM	< 50 nM	< 50 nM	CC(C)(O)c1cc2nc(N3CCC(CN4CCC5(CC4)CC(CNc4cccc6c4C(=O)N(C4CCC(=O)NC4=O)C6=O)C5)CC3)sc2cc1NC(=O)c1cccc(C(F)(F)F)n1 (stereo not shown) [I-35]
